# Assay results as given in ChEMBL document CHEMBL3885861, “Open TG-GATES”.
# Species: Rattus norvegicus
# Test: Open TG-GATES - Regimen: Daily Repeat
# Assay type: toxicity, organism-based, Sprague-Dawley
# Parameters: regimen Daily Repeat, gender Male, age 6 weeks
# Details: in vivo, po, 20 mg/kg, route gavage, dose level High; for APTT / Bas / Eos / Fbg / Hb / Lym / MCH / MCHC / MCV / Mono / Neu / PT / Plat / RBC / Ret / WBC: tissue Blood; for KIDNEY_L / KIDNEY_R / KIDNEY_TOTAL: tissue Kidney; for LIVER: tissue Liver; for ALP / ALT / AST / BUN / CRE / Ca / Cl / DBIL / GLC / IP / K / LDH / Na / PL / RALB / TBIL / TC / TG / TP / gamma-GTP: tissue Plasma
smiles,measurement,setting,value
OCCN1CCN(CCCN2c3ccccc3Sc3ccc(C(F)(F)F)cc32)CC1 [FLUPHENAZINE],TERMINAL_BW,"72 h, time 3 day",168.5 g
same,APTT,"72 h, time 3 day",13.2 s
same,Bas,"72 h, time 3 day",0%
same,Eos,"72 h, time 3 day",1.2%
same,Fbg,"72 h, time 3 day",176.8 mg/dL
same,Hb,"72 h, time 3 day",16 g/dL
same,Lym,"72 h, time 3 day",84.6%
same,MCH,"72 h, time 3 day",21.1 pg
same,MCHC,"72 h, time 3 day",33.1%
same,MCV,"72 h, time 3 day",63.6 fL
same,Mono,"72 h, time 3 day",5.2%
same,Neu,"72 h, time 3 day",9.2%
same,PT,"72 h, time 3 day",12.7 s
same,Plat,"72 h, time 3 day",131.6 x10_4/uL
same,RBC,"72 h, time 3 day",756.8 x10_4/ul
same,Ret,"72 h, time 3 day",1.2%
same,WBC,"72 h, time 3 day",83.2 x10_2/uL
same,KIDNEY_L,"72 h, time 3 day",0.9 g
same,KIDNEY_R,"72 h, time 3 day",0.9 g
same,KIDNEY_TOTAL,"72 h, time 3 day",1.7 g
same,LIVER,"72 h, time 3 day",7.4 g
same,ALP,"72 h, time 3 day",538 IU/L
same,ALT,"72 h, time 3 day",28 IU/L
same,AST,"72 h, time 3 day",76.2 IU/L
same,BUN,"72 h, time 3 day",23.4 mg/dL
same,CRE,"72 h, time 3 day",0.6 mg/dL
same,Ca,"72 h, time 3 day",10.1 mg/dL
same,Cl,"72 h, time 3 day",108.4 meq/L
same,DBIL,"72 h, time 3 day",0.036 mg/dL
same,GLC,"72 h, time 3 day",180.4 mg/dL
same,IP,"72 h, time 3 day",7 mg/dL
same,K,"72 h, time 3 day",4.2 meq/L
same,LDH,"72 h, time 3 day",189 IU/L
same,Na,"72 h, time 3 day",140 meq/L
same,PL,"72 h, time 3 day",128 mg/dL
same,RALB,"72 h, time 3 day",4.2 g/dL
same,TBIL,"72 h, time 3 day",0.3 mg/dL
same,TC,"72 h, time 3 day",74.6 mg/dL
same,TG,"72 h, time 3 day",48.4 mg/dL
same,TP,"72 h, time 3 day",5.8 g/dL
same,gamma-GTP,"72 h, time 3 day",1 IU/L
same,TERMINAL_BW,"[…], time 7 day",190 g
same,TERMINAL_BW,"[…], time 14 day",258.2 g
same,TERMINAL_BW,"[…], time 28 day",303.2 g
same,APTT,"[…], time 7 day",15.9 s
same,Bas,"[…], time 7 day",0%
same,Eos,"[…], time 7 day",0.4%
same,Fbg,"[…], time 7 day",204.6 mg/dL
same,Hb,"[…], time 7 day",15.5 g/dL
same,Lym,"[…], time 7 day",86.4%
same,MCH,"[…], time 7 day",20.9 pg
same,MCHC,"[…], time 7 day",33.8%
same,MCV,"[…], time 7 day",61.7 fL
same,Mono,"[…], time 7 day",4.8%
same,Neu,"[…], time 7 day",8.4%
same,PT,"[…], time 7 day",12.6 s
same,Plat,"[…], time 7 day",95.7 x10_4/uL
same,RBC,"[…], time 7 day",745.2 x10_4/ul
same,Ret,"[…], time 7 day",2.3%
same,WBC,"[…], time 7 day",93.7 x10_2/uL
same,APTT,"[…], time 14 day",16.1 s
same,Bas,"[…], time 14 day",0%
same,Eos,"[…], time 14 day",0.8%
same,Fbg,"[…], time 14 day",214.5 mg/dL
same,Hb,"[…], time 14 day",14.8 g/dL
same,Lym,"[…], time 14 day",80.2%
same,MCH,"[…], time 14 day",20.5 pg
same,MCHC,"[…], time 14 day",33.3%
same,MCV,"[…], time 14 day",61.6 fL
same,Mono,"[…], time 14 day",6.2%
same,Neu,"[…], time 14 day",13%
same,PT,"[…], time 14 day",12.3 s
same,Plat,"[…], time 14 day",95.6 x10_4/uL
same,RBC,"[…], time 14 day",724 x10_4/ul
same,Ret,"[…], time 14 day",3.9%
same,WBC,"[…], time 14 day",124.5 x10_2/uL
same,APTT,"[…], time 28 day",16.6 s
same,Bas,"[…], time 28 day",0%
same,Eos,"[…], time 28 day",0.8%
same,Fbg,"[…], time 28 day",206 mg/dL
same,Hb,"[…], time 28 day",15.6 g/dL
same,Lym,"[…], time 28 day",84.2%
same,MCH,"[…], time 28 day",19.4 pg
same,MCHC,"[…], time 28 day",33.7%
same,MCV,"[…], time 28 day",57.7 fL
same,Mono,"[…], time 28 day",4%
same,Neu,"[…], time 28 day",11%
same,PT,"[…], time 28 day",12.3 s
same,Plat,"[…], time 28 day",73.1 x10_4/uL
same,RBC,"[…], time 28 day",804 x10_4/ul
same,Ret,"[…], time 28 day",2.5%
same,WBC,"[…], time 28 day",157 x10_2/uL
same,KIDNEY_L,"[…], time 7 day",0.9 g
same,KIDNEY_R,"[…], time 7 day",0.9 g
same,KIDNEY_TOTAL,"[…], time 7 day",1.8 g
same,KIDNEY_L,"[…], time 14 day",1 g
same,KIDNEY_R,"[…], time 14 day",1 g
same,KIDNEY_TOTAL,"[…], time 14 day",2.1 g
same,KIDNEY_L,"[…], time 28 day",1.1 g
same,KIDNEY_R,"[…], time 28 day",1.2 g
same,KIDNEY_TOTAL,"[…], time 28 day",2.3 g
same,LIVER,"[…], time 7 day",9 g
same,LIVER,"[…], time 14 day",11.9 g
same,LIVER,"[…], time 28 day",11.9 g
same,ALP,"[…], time 7 day",653.8 IU/L
same,ALT,"[…], time 7 day",44.4 IU/L
same,AST,"[…], time 7 day",79.6 IU/L
same,BUN,"[…], time 7 day",28.8 mg/dL
same,CRE,"[…], time 7 day",0.5 mg/dL
same,Ca,"[…], time 7 day",10.3 mg/dL
same,Cl,"[…], time 7 day",105.4 meq/L
same,DBIL,"[…], time 7 day",0.01 mg/dL
same,GLC,"[…], time 7 day",158.2 mg/dL
same,IP,"[…], time 7 day",7 mg/dL
same,K,"[…], time 7 day",4.4 meq/L
same,LDH,"[…], time 7 day",195.8 IU/L
same,Na,"[…], time 7 day",140.4 meq/L
same,PL,"[…], time 7 day",184.6 mg/dL
same,RALB,"[…], time 7 day",4.2 g/dL
same,TBIL,"[…], time 7 day",0.2 mg/dL
same,TC,"[…], time 7 day",101.2 mg/dL
same,TG,"[…], time 7 day",98.6 mg/dL
same,TP,"[…], time 7 day",6.2 g/dL
same,gamma-GTP,"[…], time 7 day",1 IU/L
same,ALP,"[…], time 14 day",872 IU/L
same,ALT,"[…], time 14 day",44.8 IU/L
same,AST,"[…], time 14 day",81.5 IU/L
same,BUN,"[…], time 14 day",19.8 mg/dL
same,CRE,"[…], time 14 day",0.6 mg/dL
same,Ca,"[…], time 14 day",10.8 mg/dL
same,Cl,"[…], time 14 day",103.2 meq/L
same,DBIL,"[…], time 14 day",0.0025 mg/dL
same,GLC,"[…], time 14 day",182.8 mg/dL
same,IP,"[…], time 14 day",8.7 mg/dL
same,K,"[…], time 14 day",4.2 meq/L
same,LDH,"[…], time 14 day",148 IU/L
same,Na,"[…], time 14 day",137.2 meq/L
same,PL,"[…], time 14 day",141 mg/dL
same,RALB,"[…], time 14 day",4.2 g/dL
same,TBIL,"[…], time 14 day",0.2 mg/dL
same,TC,"[…], time 14 day",66.5 mg/dL
same,TG,"[…], time 14 day",86.8 mg/dL
same,TP,"[…], time 14 day",6.2 g/dL
same,gamma-GTP,"[…], time 14 day",2 IU/L
same,ALP,"[…], time 28 day",676.6 IU/L
same,ALT,"[…], time 28 day",31.6 IU/L
same,AST,"[…], time 28 day",80.2 IU/L
same,BUN,"[…], time 28 day",24.2 mg/dL
same,CRE,"[…], time 28 day",0.7 mg/dL
same,Ca,"[…], time 28 day",10.4 mg/dL
same,Cl,"[…], time 28 day",111.2 meq/L
same,DBIL,"[…], time 28 day",0.022 mg/dL
same,GLC,"[…], time 28 day",170.8 mg/dL
same,IP,"[…], time 28 day",6.2 mg/dL
same,K,"[…], time 28 day",4.4 meq/L
same,LDH,"[…], time 28 day",145.6 IU/L
same,Na,"[…], time 28 day",142 meq/L
same,PL,"[…], time 28 day",114.4 mg/dL
same,RALB,"[…], time 28 day",4.2 g/dL
same,TBIL,"[…], time 28 day",0.3 mg/dL
same,TC,"[…], time 28 day",57.8 mg/dL
same,TG,"[…], time 28 day",35.4 mg/dL
same,TP,"[…], time 28 day",6.4 g/dL
same,gamma-GTP,"[…], time 28 day",1.4 IU/L
